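Method: 48-hour compound exposure of cells in 96-well plates, five concentrations, linear interpolation of endpoints. TGI: concentration producing complete growth inhibition.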
What was measured:
Test in all cases: NCI tumour cell line growth inhibition, 48 h
LOX IMVI melanoma = system: LOX IMVI melanoma
HOP-18 NSCLC = system: HOP-18 NSCLC
OVCAR-5 ovarian = system: OVCAR-5 ovarian
KM20L2 colon = system: KM20L2 colon
UO-31 renal = system: UO-31 renal
SF-295 CNS = system: SF-295 CNS
HOP-62 NSCLC = system: HOP-62 NSCLC
K-562 leukemia = system: K-562 leukemia
SNB-78 CNS = system: SNB-78 CNS
KM12 colon = system: KM12 colon
MALME-3M melanoma = system: MALME-3M melanoma
SNB-19 CNS = system: SNB-19 CNS
SF-268 CNS = system: SF-268 CNS
NCI-H226 lung = system: NCI-H226 lung
HL-60(TB) leukemia = system: HL-60(TB) leukemia
CCRF-CEM leukemia = system: CCRF-CEM leukemia
DMS 273 small cell lung = system: DMS 273 small cell lung
SK-MEL-28 melanoma = system: SK-MEL-28 melanoma
U251 CNS = system: U251 CNS
SN12K1 renal = system: SN12K1 renal
EKVX NSCLC = system: EKVX NSCLC
OVCAR-4 ovarian = system: OVCAR-4 ovarian
NCI/ADR-RES ovarian = system: NCI/ADR-RES ovarian
HCC-2998 colon = system: HCC-2998 colon
OVCAR-3 ovarian = system: OVCAR-3 ovarian
DLD-1 colon = system: DLD-1 colon
P388 leukemia = system: P388 leukemia
UACC-257 melanoma = system: UACC-257 melanoma
MOLT-4 leukemia = system: MOLT-4 leukemia
COLO 205 colon = system: COLO 205 colon
OVCAR-8 ovarian = system: OVCAR-8 ovarian
HT29 colon = system: HT29 colon
XF 498 CNS = system: XF 498 CNS
NCI-H522 lung = system: NCI-H522 lung
UACC-62 melanoma = system: UACC-62 melanoma
RXF 393 renal = system: RXF 393 renal
P388/ADR leukemia = system: P388/ADR leukemia
A549 NSCLC = system: A549 NSCLC
SK-MEL-2 melanoma = system: SK-MEL-2 melanoma
SK-OV-3 ovarian = system: SK-OV-3 ovarian
SF-539 CNS = system: SF-539 CNS
HCT-15 colon = system: HCT-15 colon
IGROV1 ovarian = system: IGROV1 ovarian
M19-MEL melanoma = system: M19-MEL melanoma
HOP-92 NSCLC = system: HOP-92 NSCLC
A498 renal = system: A498 renal
NCI-H23 lung = system: NCI-H23 lung
SN12C renal = system: SN12C renal
NCI-H460 lung = system: NCI-H460 lung
HCT-116 colon = system: HCT-116 colon
SK-MEL-5 melanoma = system: SK-MEL-5 melanoma
MCF7 breast = system: MCF7 breast
DMS 114 small cell lung = system: DMS 114 small cell lung
RPMI-8226 leukemia = system: RPMI-8226 leukemia
SNB-75 CNS = system: SNB-75 CNS
CAKI-1 renal = system: CAKI-1 renal

C/C=C1/C(=O)O[C@]23C=C[C@@H]4C(C(=O)OC)=CO[C@H](O[C@@H]12)[C@@H]43
TGI (LOX IMVI melanoma): 0.725 µM
TGI (HOP-18 NSCLC): 10.4 µM
TGI (OVCAR-5 ovarian): 7.69 µM
TGI (KM20L2 colon): 15.4 µM
TGI (UO-31 renal): 6.98 µM
TGI (SF-295 CNS): 5.24 µM
TGI (HOP-62 NSCLC): 22 µM
TGI (K-562 leukemia): 7.93 µM
TGI (SNB-78 CNS): 23.6 µM
TGI (KM12 colon): 6.12 µM
TGI (MALME-3M melanoma): 5.61 µM
TGI (SNB-19 CNS): 10.3 µM
TGI (SF-268 CNS): 5.62 µM
TGI (NCI-H226 lung): 5.36 µM
TGI (HL-60(TB) leukemia): 3.06 µM
TGI (CCRF-CEM leukemia): 3.56 µM
TGI (DMS 273 small cell lung): 39.9 µM
TGI (SK-MEL-28 melanoma): 7.63 µM
TGI (U251 CNS): 5.9 µM
TGI (SN12K1 renal): 3.22 µM
TGI (EKVX NSCLC): 3.64 µM
TGI (OVCAR-4 ovarian): 2.98 µM
TGI (NCI/ADR-RES ovarian): 6.37 µM
TGI (HCC-2998 colon): 5.99 µM
TGI (OVCAR-3 ovarian): 3.95 µM
TGI (DLD-1 colon): 2.94 µM
TGI (P388 leukemia): 1.83 µM
TGI (UACC-257 melanoma): 2.31 µM
TGI (MOLT-4 leukemia): 3.83 µM
TGI (COLO 205 colon): 3.29 µM
TGI (OVCAR-8 ovarian): 11.4 µM
TGI (HT29 colon): 9.06 µM
TGI (XF 498 CNS): 3.37 µM
TGI (NCI-H522 lung): 2.19 µM
TGI (UACC-62 melanoma): 2.89 µM
TGI (RXF 393 renal): 1.29 µM
TGI (P388/ADR leukemia): 2.41 µM
TGI (A549 NSCLC): 11.1 µM
TGI (SK-MEL-2 melanoma): 3.76 µM
TGI (SK-OV-3 ovarian): 9.75 µM
TGI (SF-539 CNS): 7.39 µM
TGI (HCT-15 colon): 4.66 µM
TGI (IGROV1 ovarian): 4.88 µM
TGI (M19-MEL melanoma): 4.38 µM
TGI (HOP-92 NSCLC): 3.74 µM
TGI (A498 renal): 1.58 µM
TGI (NCI-H23 lung): 3.51 µM
TGI (SN12C renal): 4.88 µM
TGI (NCI-H460 lung): 32.4 µM
TGI (HCT-116 colon): 1.97 µM
TGI (SK-MEL-5 melanoma): 4.2 µM
TGI (MCF7 breast): 3.76 µM
TGI (DMS 114 small cell lung): 2.82 µM
TGI (RPMI-8226 leukemia): 3.4 µM
TGI (SNB-75 CNS): 7.38 µM
TGI (CAKI-1 renal): 3.21 µM

Reference: PubChem BioAssay (NCI)
